Results published in patent publication US20120238557A1, “AMINOTHIAZINE OR AMINOOXAZINE DERIVATIVE HAVING AMINO LINKER” (SHIONOGI & CO., LTD., priority 2009, published 2012).
Like-named read-outs stand apart in the source and are kept apart here.

Assays:
[1] = system: Neuroblastoma SH-SY5Y cells (SH/APPwt) with human wild-type β-APP excessively expressed; assay: Measurement of β-amyloid (Aβ) production inhibitory effect in cell; type: cell-based
Method: Neuroblastoma SH-SY5Y cells (SH/APPwt) with human wild-type β-APP excessively expressed therein were prepared at 8×10^5 cells/mL, and 150 μl portions thereof were inoculated into each well of a 96-well culture plate (Falcon). The cells were cultured for 2 hours at 37° C. in a 5% gaseous carbon dioxide incubator. Then, a solution which had been preliminarily prepared by adding and suspending the test compound (DMSO (dimethyl sulfoxide) solution) so as to be 2 μl/50 μl medium was added to the cell sap. Namely, the final DMSO concentration was 1%, and the amount of the cell culture was 200 μl. After the incubation was performed for 24 hours from the addition of the test compound, 100 μl of the culture supernatant was collected from each fraction. The amount of the Aβ in each fraction was measured.
The Aβ amount was measured as follows. 10 μl of a homogeneous time resolved fluorescence (HTRF) measurement reagent (Amyloid β 1-40 peptide; IBA Molecular Holding, S. A.) and 10 μl of the culture supernatant were put into a 384-well half area microplate (black microplate, Costar) and mixed with each other, and then left standing overnight at 4° C. while the light was shielded. Then, the fluorescence intensity (excitation wavelength: 337 nm, measurement wavelength: 620 nm and 665 nm) was measured with a Wallac 1420 multilabel counter (Perkin Elmer life sciences).

[2] = target: T1, hERG (IKr) (Homo sapiens, UniProt Q12809); assay: hERG test; type: cell-based; settings: pH 7.4, HEK293 cells expressing hERG channel, whole cell patch clamp, concentration not given, read-out: % inhibition relative to the tail peak current (IKr)
T1 construct: expressed in transfected cells; host or cells: HEK293
Text: For the purpose of assessing risk of an electrocardiogram QT interval prolongation, effects on delayed rectifier K+ current (IKr), which plays an important role in the ventricular repolarization process, was studied using HEK293 cells expressing human ether-a-go-go related gene (hERG) channel.
After a cell was retained at a membrane potential of −80 mV by whole cell patch clamp method using an automated patch clamp system (PatchXpress 7000A, Axon Instruments Inc.), IKr induced by depolarization pulse stimulation at +40 mV for 2 seconds and, further, repolarization pulse stimulation at −50 mV for 2 seconds was recorded. […] From the recording IKr, an absolute value of the tail peak current was measured based on the current value at the resting membrane potential using an analysis software (DataXpress ver.1, Molecular Devices Corporation). Further, the % inhibition relative to the tail peak current before application of the test substance was calculated, and compared with the vehicle-applied group (0.1% dimethyl sulfoxide solution) to assess influence of the test substance on IKr.

[3] = target: T2, CYP3A4 enzyme expressed in Escherichia coli (Homo sapiens, UniProt P08684); assay: CYP3A4 fluorescent MBI test; type: in vitro ADME; settings: pre-reaction time 0 or 30 minutes; substrate 7-BFC
T2 construct: host or cells: Escherichia coli
Method: The CYP3A4 fluorescent MBI test is a test of investigating enhancement of CYP3A4 inhibition of a compound by a metabolism reaction, and the test was performed using, as CYP3A4 enzyme expressed in Escherichia coli and employing, as an index, a reaction in which 7-benzyloxytrifluoromethylchmarin (7-BFC) is debenzylated by the CYP3A4 enzyme to produce a metabolite, 7-hydroxytrifluoromethylchmarin (HFC) emitting fluorescent light.
The reaction conditions were as follows: substrate, 5.6 μmol/L 7-BFC; pre-reaction time, 0 or 30 minutes; reaction time, 15 minutes; reaction temperature, 25° C. […]
An enzyme in a K-Pi buffer (pH 7.4) and a test drug solution as a pre-reaction solution were added to a 96-well plate at the composition of the pre-reaction, a part of it was transferred to another 96-well plate so that it was 1/10 diluted by a substrate in a K-Pi buffer, NADPH as a co-factor was added to initiate a reaction as an index (without preincubation) and, after a predetermined time of a reaction, acetonitrile/0.5 mol/L Tris(trishydroxyaminomethane)=4/1 was added to stop the reaction. […] For the plate on which each index reaction had been performed, a fluorescent value of 7-HFC which is a metabolite was measured with a fluorescent plate reader. […]

[4] = Solubility test; type: physicochemical; settings: JP-I and JP-II media (2% DMSO stock added), aqueous buffer, kinetic from dmso stock, medium (JP-I, JP-II), turbidity after 4 hours
Method: A 2-fold dilution series (12 points) of a 10 mM solution of a test compound in DMSO was added to a medium (JP-I, JP-II) (2%), and solubility was assessed by 3 stages (High; >40 μM, Medium; 3-40 μM, Low; <3 μM) from a turbidity after 4 hours (crystallization information).

[5] = target: T3, CYP1A2 (Homo sapiens, UniProt P05177); assay: CYP inhibition test (CYP1A2); type: in vitro ADME; settings: pooled human hepatic microsome; 7-ethoxyresorufin O-deethylation
T3 construct: enzyme, pooled human hepatic microsome 0.2 mg protein/mL; from tissue; host or cells: pooled human hepatic microsomes
T3 sequence (P05177 1-516): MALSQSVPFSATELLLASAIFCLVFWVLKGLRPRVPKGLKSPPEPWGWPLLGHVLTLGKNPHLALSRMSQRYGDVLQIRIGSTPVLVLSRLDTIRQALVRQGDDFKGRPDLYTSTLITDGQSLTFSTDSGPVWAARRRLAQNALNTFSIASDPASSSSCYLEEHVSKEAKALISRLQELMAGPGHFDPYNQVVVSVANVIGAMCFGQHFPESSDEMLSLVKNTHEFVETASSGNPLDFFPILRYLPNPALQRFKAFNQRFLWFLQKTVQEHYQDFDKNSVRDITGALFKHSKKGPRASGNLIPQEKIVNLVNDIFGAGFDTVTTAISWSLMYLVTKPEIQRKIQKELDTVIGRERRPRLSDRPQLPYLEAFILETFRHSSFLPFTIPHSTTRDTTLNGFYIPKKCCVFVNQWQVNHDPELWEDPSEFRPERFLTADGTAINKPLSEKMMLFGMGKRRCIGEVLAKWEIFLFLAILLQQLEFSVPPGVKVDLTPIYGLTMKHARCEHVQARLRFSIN
Method: (§1) Using commercially available pooled human hepatic microsome, and employing, as markers, 7-ethoxyresorufin O-deethylation (CYP1A2), tolbutamide methyl-hydroxylation (CYP2C9), mephenyloin 4′-hydroxylation (CYP2C19), dextromethorphan O-demethylation (CYP2D6), and terfenedine hydroxylation (CYP3A4) as typical substrate metabolism reactions of human main five CYP enzyme forms (CYP1A2, 2C9, 2C19, 2D6, 3A4), an inhibitory degree of each metabolite production amount by a test compound was assessed. […] After the centrifugation at 3000 rpm for 15 minutes, resorufin (CYP1A2 metabolite) in the supernatant was quantified by a fluorescent multilabel counter and tolbutamide hydroxide (CYP2C9 metabolite), mephenyloin 4′ hydroxide (CYP2C19 metabolite), dextrorphan (CYP2D6 metabolite), and terfenadine alcohol (CYP3A4 metabolite) were quantified by LC/MS/MS. Addition of only DMSO being a solvent dissolving a drug to a reaction system was adopted as a control (100%), remaining activity (%) was calculated at each concentration of a test drug added as the solution and IC50 was calculated by reverse presumption by a logistic model using a concentration and an inhibition rate.

[6] = target: T4, CYP2C9 (Homo sapiens, UniProt P11712); assay: CYP inhibition test (CYP2C9); type: in vitro ADME; settings: pooled human hepatic microsome; tolbutamide methyl-hydroxylation
T4 construct: enzyme, pooled human hepatic microsome 0.2 mg protein/mL; from tissue; host or cells: pooled human hepatic microsomes
Method: as §1

[7] = target: T5, CYP2C19 (Homo sapiens, UniProt P33261); assay: CYP inhibition test (CYP2C19); type: in vitro ADME; settings: pooled human hepatic microsome; mephenyloin 4′-hydroxylation
T5 construct: enzyme, pooled human hepatic microsome 0.2 mg protein/mL; from tissue; host or cells: pooled human hepatic microsomes
Method: as §1

[8] = target: T6, CYP3A4 (Homo sapiens, UniProt P08684); assay: CYP inhibition test (CYP3A4); type: in vitro ADME; settings: pooled human hepatic microsome; terfenedine hydroxylation
T6 construct: enzyme, pooled human hepatic microsome 0.2 mg protein/mL; from tissue; host or cells: pooled human hepatic microsomes
Method: as §1

[9] = target: T7, CYP2D6 (Homo sapiens, UniProt P10635); assay: CYP inhibition test (CYP2D6); type: in vitro ADME; settings: pooled human hepatic microsome; dextromethorphan O-demethylation
T7 construct: enzyme, pooled human hepatic microsome 0.2 mg protein/mL; from tissue; host or cells: pooled human hepatic microsomes
Method: as §1

[10] = Metabolism stability test; type: in vitro ADME; settings: human liver microsomes 0.5 mg protein/mL, 1 mmol/L NADPH, 37° C., 30 minutes; 0 minute = 100%
Method: Using a commercially available pooled human hepatic microsomes, a test compound was reacted for a constant time, a remaining rate was calculated by comparing a reacted sample and an unreacted sample, thereby, a degree of metabolism in liver was assessed.
A reaction was performed (oxidative reaction) at 37° C. for 0 minute or 30 minutes in the presence of 1 mmol/L NADPH in 0.2 mL of a buffer (50 mmol/L Tris-HCl pH 7.4, 150 mmol/L potassium chloride, 10 mmol/L magnesium chloride) containing 0.5 mg protein/mL of human liver microsomes. After the reaction, 50 μL of the reaction solution was added to 100 μL of a methanol/acetonitrile=1/1 (v/v), mixed and centrifuged at 3000 rpm for 15 minutes. The test compound in the supernatant was quantified by LC/MS/MS, and a remaining amount of the test compound after the reaction was calculated, letting a compound amount at 0 minute reaction time to be 100%.

[11] = Aβ production in SH/APPwt cells, by the similar test, read-out: IC50 value
[12] = amount needed to inhibit Aβ production by 50%, SH/APPwt cells, 24 hours, Table 3, read-out: IC50

T1 sequence (Q12809 whole entry): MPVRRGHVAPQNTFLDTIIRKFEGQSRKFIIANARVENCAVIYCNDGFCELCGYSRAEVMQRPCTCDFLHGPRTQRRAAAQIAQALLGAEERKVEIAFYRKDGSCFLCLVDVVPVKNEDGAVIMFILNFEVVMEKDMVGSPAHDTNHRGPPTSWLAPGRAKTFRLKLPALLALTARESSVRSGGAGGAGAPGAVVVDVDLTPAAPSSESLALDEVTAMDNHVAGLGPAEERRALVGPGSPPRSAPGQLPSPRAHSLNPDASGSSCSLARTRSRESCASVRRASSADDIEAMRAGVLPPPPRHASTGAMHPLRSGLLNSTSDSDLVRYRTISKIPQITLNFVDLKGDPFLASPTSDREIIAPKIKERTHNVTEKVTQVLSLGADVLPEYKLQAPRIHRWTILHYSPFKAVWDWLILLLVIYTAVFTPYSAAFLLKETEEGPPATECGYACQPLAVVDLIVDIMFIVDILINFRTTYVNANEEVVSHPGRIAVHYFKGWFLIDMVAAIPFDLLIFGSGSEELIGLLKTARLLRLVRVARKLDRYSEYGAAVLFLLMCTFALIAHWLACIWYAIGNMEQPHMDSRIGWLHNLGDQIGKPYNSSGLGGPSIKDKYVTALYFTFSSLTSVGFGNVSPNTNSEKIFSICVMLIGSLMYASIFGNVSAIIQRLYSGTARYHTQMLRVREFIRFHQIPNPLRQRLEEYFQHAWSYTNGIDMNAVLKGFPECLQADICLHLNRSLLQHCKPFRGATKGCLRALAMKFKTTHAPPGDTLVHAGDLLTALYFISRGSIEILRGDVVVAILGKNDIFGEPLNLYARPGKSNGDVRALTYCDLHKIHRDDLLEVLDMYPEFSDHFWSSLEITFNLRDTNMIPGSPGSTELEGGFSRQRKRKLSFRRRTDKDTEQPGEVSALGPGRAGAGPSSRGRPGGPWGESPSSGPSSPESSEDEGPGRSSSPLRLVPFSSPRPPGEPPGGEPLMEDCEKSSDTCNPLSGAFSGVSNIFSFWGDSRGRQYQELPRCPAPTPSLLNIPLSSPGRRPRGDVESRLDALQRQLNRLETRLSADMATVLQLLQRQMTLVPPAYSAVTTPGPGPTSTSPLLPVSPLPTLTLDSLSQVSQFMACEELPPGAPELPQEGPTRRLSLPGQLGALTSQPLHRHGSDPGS
T5 sequence (P33261 whole entry): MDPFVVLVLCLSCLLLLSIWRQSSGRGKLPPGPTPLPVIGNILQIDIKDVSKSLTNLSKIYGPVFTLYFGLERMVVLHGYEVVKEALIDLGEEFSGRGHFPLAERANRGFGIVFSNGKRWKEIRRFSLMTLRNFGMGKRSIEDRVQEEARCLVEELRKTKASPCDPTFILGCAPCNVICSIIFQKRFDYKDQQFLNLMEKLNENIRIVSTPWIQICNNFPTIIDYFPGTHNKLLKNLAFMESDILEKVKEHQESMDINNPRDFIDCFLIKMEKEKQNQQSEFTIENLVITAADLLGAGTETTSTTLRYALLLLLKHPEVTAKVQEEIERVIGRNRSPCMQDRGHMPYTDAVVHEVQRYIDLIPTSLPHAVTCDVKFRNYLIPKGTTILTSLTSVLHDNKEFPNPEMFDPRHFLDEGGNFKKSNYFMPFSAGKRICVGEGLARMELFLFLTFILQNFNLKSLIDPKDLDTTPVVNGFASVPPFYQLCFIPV
T2 sequence (P08684 whole entry): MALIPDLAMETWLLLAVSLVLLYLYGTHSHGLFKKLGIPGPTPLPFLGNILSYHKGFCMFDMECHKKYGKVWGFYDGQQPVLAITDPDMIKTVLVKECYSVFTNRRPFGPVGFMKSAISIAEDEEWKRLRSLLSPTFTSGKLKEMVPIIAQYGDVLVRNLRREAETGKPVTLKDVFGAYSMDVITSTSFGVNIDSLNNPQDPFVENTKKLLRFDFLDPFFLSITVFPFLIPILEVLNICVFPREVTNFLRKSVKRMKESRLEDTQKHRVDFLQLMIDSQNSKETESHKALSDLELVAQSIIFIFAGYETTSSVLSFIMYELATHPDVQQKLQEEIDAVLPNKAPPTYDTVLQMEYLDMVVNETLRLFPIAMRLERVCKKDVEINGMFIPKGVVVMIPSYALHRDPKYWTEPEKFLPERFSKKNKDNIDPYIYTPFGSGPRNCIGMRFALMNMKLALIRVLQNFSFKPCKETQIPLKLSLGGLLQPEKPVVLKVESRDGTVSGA
T6 sequence (P08684 whole entry): as above
T4 sequence (P11712 whole entry): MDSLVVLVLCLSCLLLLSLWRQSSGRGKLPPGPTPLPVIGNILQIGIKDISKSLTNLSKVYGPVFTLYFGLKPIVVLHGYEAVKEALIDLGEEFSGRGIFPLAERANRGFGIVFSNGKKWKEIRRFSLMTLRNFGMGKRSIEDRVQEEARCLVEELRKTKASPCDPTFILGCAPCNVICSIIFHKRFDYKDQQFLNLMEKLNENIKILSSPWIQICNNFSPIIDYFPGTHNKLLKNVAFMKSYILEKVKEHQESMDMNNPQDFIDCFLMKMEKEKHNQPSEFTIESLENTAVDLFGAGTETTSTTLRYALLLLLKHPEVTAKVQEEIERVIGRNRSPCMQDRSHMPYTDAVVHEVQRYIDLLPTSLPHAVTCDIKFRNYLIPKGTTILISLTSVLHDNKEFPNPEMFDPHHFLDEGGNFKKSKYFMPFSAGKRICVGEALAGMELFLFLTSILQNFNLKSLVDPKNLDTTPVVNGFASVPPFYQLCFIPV
T7 sequence (P10635 whole entry): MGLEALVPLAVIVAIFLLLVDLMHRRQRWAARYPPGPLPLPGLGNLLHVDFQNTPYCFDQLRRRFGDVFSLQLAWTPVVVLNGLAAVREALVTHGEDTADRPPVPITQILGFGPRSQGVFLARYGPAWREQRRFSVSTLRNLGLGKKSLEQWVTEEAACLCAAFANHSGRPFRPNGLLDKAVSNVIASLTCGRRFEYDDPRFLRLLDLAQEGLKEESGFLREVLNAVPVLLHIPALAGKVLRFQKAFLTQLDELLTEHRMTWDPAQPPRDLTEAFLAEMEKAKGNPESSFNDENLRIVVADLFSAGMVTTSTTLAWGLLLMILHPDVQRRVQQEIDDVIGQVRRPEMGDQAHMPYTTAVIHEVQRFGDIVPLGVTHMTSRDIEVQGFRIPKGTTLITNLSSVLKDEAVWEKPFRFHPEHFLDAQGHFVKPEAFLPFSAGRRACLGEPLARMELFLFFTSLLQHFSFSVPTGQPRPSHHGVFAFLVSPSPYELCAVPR

C[C@@]1(c2cc(Nc3ccncn3)ccc2F)CCSC(N)=N1 [Compound I-1]
IC50 [1, 11]: ≤ 3 µM | inhibition at 10 min [2]: 3.2%

C[C@@]1(c2cc(Nc3ncccc3C#N)ccc2F)CCOC(N)=N1 [Compound I-3]
CYP3A4 MBI: difference between IC50 values [3]: (−) (when the difference is 3 μM or less, this was defined as (−))

COc1cccnc1Nc1ccc(F)c([C@]2(C)CCOC(N)=N2)c1 [Compound I-6]
IC50 [1, 12]: 0.016 µM

C[C@@]1(c2cc(Nc3ncccc3C#N)ccc2F)C=CSC(N)=N1 [Compound I-9]
solubility at 4 h [4]: > 40 µM

C[C@@]1(c2cc(Nc3ncccc3N)ccc2F)CCSC(N)=N1 [Compound I-10]
IC50 [1, 11]: ≤ 3 µM | IC50 [5]: > 21 µM | IC50 [6]: > 21 µM | IC50 [7]: > 21 µM | IC50 [8]: > 21 µM | IC50 [9]: > 21 µM

Cc1cccc(Nc2ccc(F)c([C@]3(C)CCSC(N)=N3)c2)n1 [Compound I-12]
IC50 [1, 11]: ≤ 3 µM

C[C@@]1(c2cc(Nc3ncccc3CO)ccc2F)CCSC(N)=N1 [Compound I-16]
IC50 [1, 11]: ≤ 3 µM

COc1cccnc1Nc1ccc(F)c([C@]2(C)CCSC(N)=N2)c1 [Compound I-18]
IC50 [1, 12]: 0.011 µM

COc1ccnc(Nc2ccc(F)c([C@]3(C)CCSC(N)=N3)c2)c1 [Compound I-19]
IC50 [1, 11]: ≤ 3 µM

COc1ccc(Nc2ccc(F)c([C@]3(C)CCSC(N)=N3)c2)nc1 [Compound I-20]
IC50 [1, 11]: ≤ 3 µM

COCc1ccc(Nc2ccc(F)c([C@]3(C)CCSC(N)=N3)c2)nc1 [Compound I-23]
IC50 [1, 11]: ≤ 3 µM

CC(C)Oc1cccnc1Nc1ccc(F)c([C@]2(C)CCSC(N)=N2)c1 [Compound I-24]
IC50 [1, 11]: ≤ 3 µM

CCCCOC(=O)c1cccnc1Nc1ccc(F)c([C@]2(C)CCOC(N)=N2)c1 [Compound I-25]
IC50 [1, 11]: ≤ 3 µM

CC(C)OCc1ccc(Nc2ccc(F)c([C@]3(C)CCSC(N)=N3)c2)nc1 [Compound I-26]
IC50 [1, 11]: ≤ 3 µM

C[C@@]1(c2cccc(Nc3ncccc3C#N)c2)CCSC(N)=N1 [Compound I-33]
remaining amount of the test compound after the reaction [10]: 95%
